Assays:
Format in all cases: cell-based
[1] = Colony forming assay for compound 2 and 38 (treatment and 5 days recovery); settings: treatment and recovery (5 days)
[2] = tested on: U20S cells; experiment: Colony forming assay in U20S cells depleted of or overexpressing TEAD4; settings: for TEAD4 dependence of cellular sensitivity (siRNA depletion, colony forming): U20S cells, control siRNA vs TEAD4 siRNA
Protocol: (§1) In colony forming assay, indicated cells were plated at 5,000 cells density in 2 ml of DMEM medium. TEAD4 depletion was performed by reverse transfection with 20 nM of Dharmacon smart pool NTsiRNA and TEAD4 siRNA in 2.5 ul of lipofectamine mixed with 25% of OPTIMEM. After 18 hrs of transfection, cells were either DMSO treated or treated with indicated compounds at different doses. After 48 hrs of the treatment cells were recovered in a fresh medium for 4 days. At the end of the experiment cells were Glutaraldehyde fixed and stained in crystal violet solution for 2 hrs. After washing, plates were scanned for image processing.
In line with proliferation assay we performed colony forming assay in U20S cells either depleted or overexpressing TEAD4. Cells stably expressing GFP and GFP fused TEAD4 were also included in this assay.

[3] = tested on: A549 cells; experiment: Cell proliferation assay (Cell Titre Glow) in A549 cells with TEAD4 depletion; settings: TEAD4 depleted A549 cells, compared with NTsi treated cells
Protocol: (§2) Method: Indicated cells were plated at 3000 cells/80 μl in each well. TEAD4 depletion was performed by reverse transfection with 20 nM of Dharmacon smart pool NTsiRNA and TEAD4 siRNA in 0.25 ul of lipofectamine mixed with 25% of OPTIMEM. After 18 hrs of transfection, cells were recovered for 24 hrs in fresh DMEM medium. Cells were treated with indicated compounds at different doses. After 48 hrs of dosing cells were recovered in fresh medium for 3 days. Cell Titre Glow (CTG) assay was used.
(§3) U20S cells stably expressing GFP fused TEAD4 and GFP alone were treated with different doses of CPD10 and analysed for cellular proliferation. […] Further we used cell lines expressing higher level of TEAD4 and performed depletion experiment followed by comparative sensitivity analysis.

[4] = tested on: NCI-H226 mesothelioma cells; experiment: Colony forming assay in NCI-H226 mesothelioma cells
Protocol: as §1
Colony forming assay was essentially performed as described in previous section.

[5] = target: T1, YAP-TEAD binding (Homo sapiens, UniProt Q15561); experiment: Endogenous TEAD4 immunoprecipitation in NCI-H226 mesothelioma cells; settings: 24 hrs, indicated concentrations
T1 construct: Endogenous TEAD4 IP; endogenous in cells; host or cells: NCI-H226 mesothelioma cells
T1 sequence (Q15561 whole entry): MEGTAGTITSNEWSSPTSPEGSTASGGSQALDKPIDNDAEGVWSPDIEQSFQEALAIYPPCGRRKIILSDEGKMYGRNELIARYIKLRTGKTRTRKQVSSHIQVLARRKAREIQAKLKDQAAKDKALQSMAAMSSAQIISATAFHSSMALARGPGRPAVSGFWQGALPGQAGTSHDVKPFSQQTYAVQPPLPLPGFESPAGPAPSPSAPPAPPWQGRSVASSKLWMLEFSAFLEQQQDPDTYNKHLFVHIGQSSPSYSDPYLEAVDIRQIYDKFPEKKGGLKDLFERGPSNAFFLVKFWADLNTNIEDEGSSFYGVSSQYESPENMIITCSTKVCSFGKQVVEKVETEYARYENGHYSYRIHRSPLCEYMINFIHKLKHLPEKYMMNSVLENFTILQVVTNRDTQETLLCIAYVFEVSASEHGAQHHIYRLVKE
Protocol: Evaluation of CPD10 and CPD13 in NCI-H226 mesothelioma cell line: Actively growing cells were either DMSO added or treated with indicated concentrations of CPD10 and CPD13 for 24 hrs. Cells were collected in ice-cold PBS and pellets were lysed in IP Lysis Buffer (25 mM Tris-HCl pH 7.4, 150 mM NaCl, 1 mM EDTA, 1% NP-40 and 5% glycerol and competing amount of protease inhibitor). Samples were lysed by sonication, BCA assay was performed and equal concentration of protein were added with TEAD4 antibody (3 ul). After overnight incubation in cold room, samples were added with anti-rabbit magnetic beads to trap the TEAD and binding complex for 2 hrs. Samples were washed 3 times and bound fraction were collected with the help of magnetic stand. Samples were added with 4×LDS, competing amount of DTT, and boiled for 3 minutes. Whole cell lysate (Input) and IP samples were resolved in 8% SDS-PAGE gel and immunoblotted with indicated antibodies.
(§4) Relative quantification of immunoblot signals were quantified with IMAGE J software. Actively growing cells were added with indicated concentrations of CPD10 and CPD13 and cells were collected after 24 hrs. RNA was extracted and cDNA was synthesized. Indicated primer pairs were used for RT-PCR. Relative gene expression was determined by using GAPDH amplification.

[6] = tested on: U20S cells; experiment: Cell proliferation assay (Cell Titre Glow) in U20S cells
Protocol: as §2, §3

[7] = target: T2, TEAD4 binding to YAP and TAZ (Homo sapiens, UniProt Q15561); experiment: GFP-TRAP assay to pull down TEAD4 binders in U20S cells expressing GFP fused TEAD4; settings: U20S cells expressing GFP fused TEAD4, 10 uM
T2 construct: expressed in transfected cells
T2 sequence (Q15561 whole entry, the tested form may be a part): as the sequence (Q15561 whole entry) above
Protocol: GFP-TRAP assay: To purify TEAD4 binders, GFP-Trap Magnetic Agarose (gtma-100) was used, and assay was performed strictly according to manufacturer's instructions. At the end of the assay, agarose beads were resuspended in 2×LDS lysis buffer, competing amount of DTT was added into it and samples were boiled for 3 minutes. Supernatants were collected and used for immunoblotting.
To determine whether CPD10 or 13 leads downregulation of TEAD4 binding to its transcriptional targets YAP and TAZ, U20S cells stably expressing GFP alone and GFP fused TEAD4 were either mock-treated or treated with indicated doses of CPD10. GFP-TRAP assay was performed to pull down TEAD4 binders, and immunoblotted. As one of the strong binders of the TEAD4, YAP/TAZ protein signal were detected in purified complex. […] The GFP blot indicating the GFP and GFP fused TEAD4 signal in whole cell lysates and purified protein samples (C).

[8] = tested on: hippo signaling target proteins (TEAD4, Pan-TEADs, YAP, TAZ); experiment: Immunoblotting of hippo signaling target proteins in A549 whole cell lysates; settings: A549 cells, 24 hrs; for wild type p53 expression (immunoblot): same protein samples
Protocol: Method: A549 cells (at 60% confluency) either mock treated or treated with indicated doses of CPD10 and CPD13 for 24 hrs. Cells were washed with ice-cold 1×PBS and lysed in protein lysis buffer. Whole cell lysates were quantified by Pierce™ BCA Protein assay kit (Catalog number: 23225) and denatured in 4×LDS buffer (Thermo catalog number: NP0007) added with competing amount of DTT followed by boiling for 3 minutes. Samples were resolved in 8% of SDS-PAGE, transferred onto nitrocellulose membrane and immunoblotting was performed with indicated antibodies.
Result: To determine the CPD10 and CPD13 mediated expression of hippo signaling target proteins in A549 cells, whole cell lysates from mock treated and compounds treated cells were immunoblotted to determine the level of TEAD4, Pan-TEADs, YAP, TAZ proteins. […] Similar to CPD10, CPD13 downregulate YAP expression at 10 Um (B). To determine the level of other transcriptional targets, we tested the p53 protein in same sets of protein samples. […] GAPDH was used as loading control.

[9] = tested on: TEADs transcriptional target genes; experiment: RT PCR transcriptional profiling of TEADs target genes in A549 cells; settings: for NFKB1 relative expression (RT PCR) / c-MYC relative expression (RT PCR): low dose; for YAP/TAZ relative expression (RT PCR): low dose (2.5 μM of CPD10)
Protocol: Method: A549 cells (at 60% confluency) either mock treated or treated with indicated doses of CPD 10 and CPD13 for 24 hrs. Cells were washed with ice-cold 1×PBS. RNA extraction was performed with Quick-RNA™ miniprep kit (Zymo Research, Cat. No. R1055), strictly according to manufacturer's instructions. Nanodrop quantified 2 μg of RNA samples were used for cDNA synthesis with cDNA Reverse Transcription Kit (Thermo Cat. No. 4368814) strictly according to the manufacturer's instructions. In RT PCR experiment, comparative target gene expression was performed by SYBR™ Green (Thermo Cat. No. 4309155) Master mix. Relative target gene expressions were compared and plotted on Y-Axis.
Result: Relative expression of YAP and TAZ in response to low dose of CPD10 (A) and CPD13 (B) treatment in A549 cells. c-MYC was included as non-transcriptional target of the TEADs. NFKB1 was included as its expression is reciprocal to the YAP/TAZ. Downstream effectors of the TEADs targets (CYR61, AXL, CTGF and ANKRD1) were determined in responses to 2.5, 5 and 10 μM of CPD10 (C) and CPD13 (D).
CPD10 and CPD13 Downregulate the TEADs transcriptional target genes: To determine CPD10 and CPD13 induced relative expression of TEADs target genes, A549 cells were treated with indicated doses for 24 hrs. Transcriptional profiling was performed with respective primer pairs. […] Further we tested the expression of one of the strong non hippo transcription factor, the C-Myc. As expected, c-MYC expression was not affected in response to CPD10 treatment (A). […] C-Myc expression was not affected. […] An Increase of NFKB1 expression is consistent with significant downregulation of YAP expression in response to CPD13 treatment (B). To determine the state of TEADs transcriptional target genes at higher concentrations, A549 cells were treated with indicated doses of compounds and analyzed for the expression of CYR61, AXL, CTGF and ANKRD1.

[10] = tested on: TEAD transcriptional target genes; experiment: RT-PCR profiling of YAP-TEAD transcriptional target genes in NCI-H226 cells; settings: 24 hrs
Protocol: as §4

[11] = target: T3, GFP-TEAD4 (Homo sapiens, UniProt Q15561); experiment: TEAD4 localization imaging in U20S cells stably expressing GFP-TEAD4; settings: 10 μM, 18 hrs
T3 construct: expressed in transfected cells
T3 sequence (Q15561 whole entry): as above
Protocol: Methods: U20S cells stably expressing GFP-TEAD4 were seeded at 50,000 cell densities onto glass cover slips in six well plates. Next day, cells were either DMSO treated or treated with indicated compounds at 10 μM concentrations. After 18 hrs of treatment cells were washed and fixed in 4% formaldehyde for 20 minutes. Blocking was done in 3% BSA dissolved in PBST for 1 hour. Cell were incubated with indicated antibodies for overnight in a cold room. Next day, after washing 3× in PBST samples were incubated with respective secondary antibodies for 45 minutes at room temperature. After washing nuclear staining was done with DAPI for 10 minutes. Coverslips were added onto glass slides with the help of mounting medium. After drying, cells were imaged at 63× objective and processed with ZEN x64 blue software.
Result: In DMSO treated control samples we observed very nuclear localized TEAD4 (green) signal, strongly imposed to the DAPI signal. Nuclear and cytoplasmic YAP and TAZ was observed either in DMSO or in compound treated cells.

[12] = tested on: CTGF and CYR61 transcripts; experiment: RT-qPCR of Hippo-dependent gene transcripts in MCF10
Protocol: (§5) MGH-CP1 (positive control) and Cpd 13 were tested on MCF10 and A549.

[13] = tested on: CTGF and CYR61 transcripts; experiment: RT-qPCR of Hippo-dependent gene transcripts in A549
Protocol: as §5

Compound | TEAD dependence of induced cell sensitivity (colony forming assay) [1] | TEAD4 dependence of cellular sensitivity (siRNA depletion, colony forming) [2] | colony forming sensitivity [4] | YAP-TEAD binding (TEAD4 IP, immunoblot) [5] | wild type p53 expression (immunoblot) [8] | AXL relative expression (RT PCR) ([9]; 24 hrs, 2.5, 5 and 10 μM) | CTGF relative expression (RT PCR) ([9]; 24 hrs, 2.5, 5 and 10 μM) | CYR61 relative expression (RT PCR) ([9]; 24 hrs, 2.5, 5 and 10 μM) | NFKB1 relative expression (RT PCR) ([9]; 24 hrs) | c-MYC relative expression (RT PCR) ([9]; 24 hrs) | YAP/TAZ relative expression (RT PCR) ([9]; 24 hrs) | TEAD transcriptional target genes expression (RT-PCR) [10] | cytoplasmic localization of the TEAD4 protein [11] | nuclear TEAD4 presence [11] | other results
C=CS(=O)(=O)CCC(=O)Nc1cc(-c2ccccc2)cnc1C [CPD2] | not TEAD dependent | – | – | – | – | – | – | – | – | – | – | – | – | – | –
C=CS(=O)(=O)CCC(=O)Nc1nn(-c2ccccc2)cc1C [CPD10] | – | TEAD4 dependent | strongly sensitizes | disrupted to a great extent | didn't resulted in change | suppressed at 2.5 μM and subsequently downregulated in a dose dependent manner | suppressed at 2.5 μM and subsequently downregulated in a dose dependent manner | suppressed at 2.5 μM and subsequently downregulated in a dose dependent manner | minor increase | not affected | downregulated | repression | induction of cytoplasmic localization | didn't diminish | colony forming sensitivity ([2]; U20S cells overexpressing GFP fused TEAD4, in comparison to GFP alone): very high sensitivity; colony forming sensitivity ([2]; U20S cells treated with control siRNA, unlike TEAD4 depleted cells, 2.5 μM): very high sensitivity; cellular proliferation sensitivity [3]: lower sensitivity; cellular proliferation sensitivity ([6]; U20S cells expressing GFP alone, low dose): didn't display sensitivity; cellular proliferation sensitivity ([6]; U20S cells overexpressing GFP-TEAD4, below 5 uM): higher sensitivity; YAP/TAZ binding to TEAD4 (GFP-TRAP pull down, immunoblot) [7]: significantly reduced; TAZ expression (immunoblot) ([8]; 10 Um): significantly reduced; TEAD4 and pan-TEAD expression (immunoblot) ([8]; highest concentration): reduced; YAP expression (immunoblot) ([8]; indicated doses): downregulated in a dose dependent manner; ANKRD1 relative expression (RT PCR) ([9]; 24 hrs, 10 μM): significantly reduced
C=CS(=O)(=O)CCC(=O)Nc1nc(C2CCCCC2)c(C)s1 [CPD13] | – | TEAD4 dependent | strongly sensitizes | disrupted to a great extent | didn't resulted in change | further downregulated in a dose dependent manner | further downregulated in a dose dependent manner | further downregulated in a dose dependent manner | Increase | not affected | significant reduction | repression | induction of cytoplasmic localization | didn't diminish | colony forming sensitivity ([2]; TEAD4 depleted cells, unlike control siRNA treated cells): less sensitive; CTGF and CYR61 transcripts (RT-qPCR) [12]: dose dependent decrease; CTGF and CYR61 transcripts (RT-qPCR) [13]: dose dependent decrease; YAP expression (immunoblot) ([8]; 10 Um): downregulate; ANKRD1 relative expression (RT PCR) ([9]; 24 hrs, 2.5, 5 and 10 μM): further downregulated in a dose dependent manner
C=CS(=O)(=O)CCC(=O)Nc1cnn(-c2ccccc2)n1 [CPD38] | not TEAD dependent | – | – | – | – | – | – | – | – | – | – | – | – | – | –
